US8431597B2, “Benzimidazole derivatives” (Pfizer Inc., priority 2007, dated 2013)
Where a name gives a salt, the structure may show the parent alone.

Biological target: T1, Smoothened (SMO) (Mus musculus, UniProt P56726)
T1 construct: C3H10T1/2 cells (ATCC #CCL-226) were split and seeded; endogenous in cells; host or cells: C3H10T1/2 (ATCC #CCL-226)
Assay: Smoothened (SMO)/Sonic Hedgehog (SHh) Transient Transcriptional Activation Assay (Gli-luciferase reporter in C3H10T1/2 cells)
Format: cell-based, murine
Conditions: transfected C3H10T1/2 cells, recombinant human SHh 250 ng/mL, 20 hours, luciferase readout; for inhibition at 2 µM: C3H 10T1/2, 2 μM compound, read-out: SMO CELL % INHIBITION @ 2 μM; for SMO CELL % INHIBITION @ 2 μM: 2 μM compound
Method: As noted above, the compounds of the invention are useful as inhibitors of SMO. • Methods for determining the in vitro activity of these compounds are described below: Smoothened (SMO)/Sonic Hedgehog (SHh) Transient Transcriptional Activation Assay
On Day 1, 2×10^6 C3H10T1/2 cells (ATCC #CCL-226) were split and seeded in 12 mL of growth medium Basal Medium Eagle (BME, Invitrogen #21010-046) supplemented with 2 mM L-glutamine (Invitrogen #25030-081), 0.1 units/mL penicillin and 0.1 μg/mL streptomycin (Invitrogen #15140-122), and 10% Fetal Bovine Serum (FBS, Invitrogen #16140-071) in a T-75 flask (Costar #3376). They were allowed to attach for 4 hours at 37° C., 5% CO2. The cells were then transfected using Fugene 6 (Roch #11 814 443 001) in the following reaction: 48 μL Fugene 6 and 745 μL Opti-MEM (Invitrogen #31985-070) were mixed and allowed to sit at room temperature for 5 minutes. 8 μg of pGL4.14/mGli(CS) DNA (10× murine Gli response elements and minimal CS promoter) and 0.5 μg of pEGFP DNA (Clontech) were added, gently mixed and incubated at room temperature for 20 minutes. This entire transfection mix was then added to the T-75 flask containing the cells. The cells were incubated at 37° C., 5% CO2 for 18-24 hours.
On Day 2, the transfected cells were trypsinized and seeded into white 96 well plates (Costar #3917) in 100 μL/well of growth medium at a concentration of 20,000 cells/well. The cells were allowed to recover for 4 hours before adding serum starvation medium Dulbecco's Modified Eagle Medium (DMEM, Invitrogen #21063-029) supplemented with 2 mM L-glutamine, 0.1 units/mL penicillin and 0.1 μg/mL streptomycin, and 0.5% Calf Serum (CS, Invitrogen #26170-043). The growth media was aspirated off, and the cells were rinsed with 100 μL of starvation media. 95 μL of starvation media was then added to each well. The cells were incubated for 20 hours at 37° C., 5% CO2.
On Day 3, cells were dosed with test compounds at a final concentration ranging from 2 μM to 2 nM. Immediately after dosing cells with compounds, recombinant human sonic hedgehog (SHh, R&D Systems #1845-SH) was add to a final concentration of 250 ng/mL. A 25 μg vial of SHh was reconstituted with 250 μL PBS/0.1% BSA to give a 100 ng/μL working stock. This working stock was then diluted 1:20 in starvation media. The transfected cells were incubated with compounds and SHh for 20 hours at 37° C., 5% CO2.
Luciferase assays were conducted on Day 4 using Dual-Glo Luciferase assay system (Promega #E2940) according to Promega's protocol. Briefly, Dual-Glo luciferase reagent was made up and 100 μL were added to each well of the 96 well plate containing media. Plates were shaken at room temperature for 10 minutes, and then read on TopCount (Perkin-Elmer). The luminescence was recorded.

T1 sequence (P56726 33-793): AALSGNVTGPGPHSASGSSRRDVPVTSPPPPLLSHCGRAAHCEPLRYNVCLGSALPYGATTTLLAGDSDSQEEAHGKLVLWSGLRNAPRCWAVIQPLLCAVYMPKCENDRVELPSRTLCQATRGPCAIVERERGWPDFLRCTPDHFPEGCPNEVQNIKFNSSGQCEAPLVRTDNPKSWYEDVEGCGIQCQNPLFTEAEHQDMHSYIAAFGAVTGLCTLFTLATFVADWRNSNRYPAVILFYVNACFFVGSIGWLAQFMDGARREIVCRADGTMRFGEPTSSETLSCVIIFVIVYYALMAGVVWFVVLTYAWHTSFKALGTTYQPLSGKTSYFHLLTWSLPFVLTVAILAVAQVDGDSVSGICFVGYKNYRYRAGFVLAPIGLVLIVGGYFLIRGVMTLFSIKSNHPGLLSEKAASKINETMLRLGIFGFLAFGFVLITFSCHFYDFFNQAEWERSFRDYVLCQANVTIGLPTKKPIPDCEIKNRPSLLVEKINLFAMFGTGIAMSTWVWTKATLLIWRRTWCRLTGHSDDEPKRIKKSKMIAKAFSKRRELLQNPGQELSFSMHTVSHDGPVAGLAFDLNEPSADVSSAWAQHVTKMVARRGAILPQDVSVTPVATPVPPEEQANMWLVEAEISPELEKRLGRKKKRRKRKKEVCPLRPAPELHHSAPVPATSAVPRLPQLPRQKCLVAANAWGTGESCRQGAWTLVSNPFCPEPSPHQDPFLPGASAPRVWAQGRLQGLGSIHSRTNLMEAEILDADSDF

SMILES	inhibition at 2 µM	SMO CELL % INHIBITION @ 2 μM
Cc1ccc2nc([C@H]3C[C@H](NC(=O)c4ccc5c(c4)OCCO5)CCN3C)[nH]c2c1 (stereo in doubt) [Example 6, 2,3-Dihydro-benzo[1,4]dioxine-6-carboxylic acid [1-methyl-2-(6-methyl-1H-benzoimidazol-2-yl)-piperidin-4-yl]-amide hydrochloride]	105%	
CN1CC[C@@H](NC(=O)Nc2ccc(C#N)cc2)C[C@@H]1c1nc2cc(C(F)(F)F)ccc2[nH]1 [Example 7, 1-(4-cyanophenyl)-3-{(2R,4R)-1-methyl-2-[5-(trifluoromethyl)-1H-benzimidazol-2-yl]piperidin-4-yl}urea hydrochloride]	109%	
CC(C)(C)OC(=O)N1C[C@@H](NC(=O)Nc2ccc(Cl)c(C(F)(F)F)c2)C[C@H]1c1nc2ccccc2[nH]1 [Example 8, tert-butyl (2S,4S)-2-(1H-benzimidazol-2-yl)-4-[({[4-chloro-3-(trifluoromethyl)phenyl]amino}carbonyl)amino]pyrrolidine-1-carboxylate]	57.1%	
O=C(N[C@@H]1CN[C@H](c2nc3ccccc3[nH]2)C1)c1ccc2c(c1)OCCO2 [Example 9, N-[(3S,5S)-5-(1H-benzimidazol-2-yl)pyrrolidin-3-yl]-2,3-dihydro-1,4-benzodioxine-6-carboxamide]		65.00%
O=C(N[C@H]1C[C@@H](c2nc3ccccc3[nH]2)N(C(=O)OCc2ccccc2)C1)c1ccc2c(c1)OCCO2 [Example 10, benzyl (2S,4S)-2-(1H-benzimidazol-2-yl)-4-[(2,3-dihydro-1,4-benzodioxin-6-ylcarbonyl)amino]pyrrolidine-1-carboxylate]	106%	
O=C(N[C@@H]1CN[C@H](c2nc3ccccc3[nH]2)C1)c1ccc2c(c1)OCCO2 [Example 11, N-[(3S,5S)-5-(1H-benzimidazol-2-yl)pyrrolidin-3-yl]-2,3-dihydro-1,4-benzodioxine-6-carboxamide]		110.10%
O=C(N[C@@H]1CCN2CCn3c(nc4ccccc43)[C@H]2C1)c1ccc2c(c1)OCCO2 [Example 12, N-[(2R,13bR)-1,3,4,6,7,13b-hexahydro-2H-pyrido[2′,1′:3,4]pyrazino[1,2-a]benzimidazol-2-yl]-2,3-dihydro-1,4-benzodioxine-6-carboxamide hydrochloride]	64.1%	
O=C(Nc1ccc(Cl)c(C(F)(F)F)c1)N[C@@H]1CN[C@H](c2nc3ccc(F)cc3[nH]2)C1 [Example 13, 1-[4-chloro-3-(trifluoromethyl)phenyl]-3-[(3S,5S)-5-(6-fluoro-1H-benzimidazol-2-yl)pyrrolidin-3-yl]urea]	84.2%	
CN1C[C@H](NC(=O)Nc2ccc(Cl)c(C(F)(F)F)c2)C[C@H]1c1nc2ccc(F)cc2[nH]1 [Example 14, 1-[4-chloro-3-(trifluoromethyl)phenyl]-3-[(3R,5S)-5-(6-fluoro-1H-benzimidazol-2-yl)-1-methylpyrrolidin-3-yl]urea]	81.8%	
CN1CC[C@@H](NC(=O)Nc2ccc(OC(F)(F)F)cc2)C[C@@H]1c1nc2ccccc2[nH]1 [Example 15, 1-[(2R,4R)-2-(1H-benzimidazol-2-yl)-1-methylpiperidin-4-yl]-3-[4-(trifluoromethoxy)phenyl]urea hydrochloride]	111%	
CN1CC[C@@H](NC(=O)Nc2ccncc2)C[C@@H]1c1nc2ccccc2[nH]1 [Example 16, 1-[(2R,4R)-2-(1H-benzimidazol-2-yl)-1-methylpiperidin-4-yl)-3-pyridin-4-ylurea hydrochloride]	111%	
CN1CC[C@@H](NC(=O)Nc2ccc(C(F)(F)F)cc2)C[C@@H]1c1nc2ccccc2[nH]1 [Example 18, 1-[(2R,4R)-2-(1H-benzimidazol-2-yl)-1-methylpiperidin-4-yl]-3-[4-(trifluoromethyl)phenyl]urea hydrochloride]	110%	

The remaining lines, values ahead:

inhibition at 2 µM	SMO CELL % INHIBITION @ 2 μM	SMILES
63.2%		Cc1ccc2nc([C@@H]3C[C@@H](NC(=O)Nc4ccc(Cl)c(C(F)(F)F)c4)CN3C)[nH]c2c1 [Example 17, 1-[4-chloro-3-(trifluoromethyl)phenyl]-3-[(3R,5S)-1-methyl-5-(6-methyl-1H-benzimidazol-2-yl)pyrrolidin-3-yl]urea]
109%		CN1CC[C@@H](NC(=O)Nc2ccc(C#N)cc2)C[C@@H]1c1nc2cc(C#N)ccc2[nH]1 [Example 19, 1-[(2R,4R)-2-(5-cyano-1H-benzimidazol-2-yl)-1-methylpiperidin-4-yl]-3-(4-cyanophenyl)urea hydrochloride]
63%		COc1ccc2nc([C@@H]3C[C@H](NC(=O)Nc4ccc(Cl)c(C(F)(F)F)c4)CN3)[nH]c2c1 [Example 20, 1-[4-chloro-3-(trifluoromethyl)phenyl]-3-[(3S,5S)-5-(6-methoxy-1H-benzimidazol-2-yl)pyrrolidin-3-yl]urea]
61.8%		CN1C[C@@H](NC(=O)c2ccc3c(c2)OCCO3)C[C@H]1c1nc2ccccc2[nH]1 [Example 21, N-[(3S,5S)-5-(1H-benzimidazol-2-yl)-1-methylpyrrolidin-3-yl]-2,3-dihydro-1,4-benzodioxine-6-carboxamide]
102%		Cc1ccc2nc([C@@H]3C[C@H](NC(=O)Nc4ccc(Cl)c(C(F)(F)F)c4)CN3C)[nH]c2c1 [Example 22, 1-[4-chloro-3-(trifluoromethyl)phenyl]-3-[(3S,5S)-1-methyl-5-(6-methyl-1H-benzimidazol-2-yl)pyrrolidin-3-yl]urea]
100%		Cc1ccc2nc([C@@H]3C[C@@H](NC(=O)Nc4ccc(Cl)c(C(F)(F)F)c4)CN3C(C)C)[nH]c2c1 [Example 23, 1-[4-chloro-3-(trifluoromethyl)phenyl]-3-[(3R,5S)-1-isopropyl-5-(6-methyl-1H-benzimidazol-2-yl)pyrrolidin-3-yl]urea]
63.1%		CC(C)(C)OC(=O)N1C[C@H](NC(=O)Nc2ccc(Cl)c(C(F)(F)F)c2)C[C@H]1c1nc2ccccc2[nH]1 [Example 24, tert-butyl (2S,4R)-2-(1H-benzimidazol-2-yl)-4-[({[4-chloro-3-(trifluoromethyl)phenyl]amino}carbonyl)amino]pyrrolidine-1-carboxylate]
105%		COc1ccc2nc([C@@H]3C[C@H](NC(=O)Nc4ccc(Cl)c(C(F)(F)F)c4)CN3C)[nH]c2c1 [Example 25, 1-[4-chloro-3-(trifluoromethyl)phenyl]-3-[(3S,5S)-5-(6-methoxy-1H-benzimidazol-2-yl)-1-methylpyrrolidin-3-yl]urea]
109%		CN1CC[C@@H](NC(=O)Nc2ccc(Cl)c(C(F)(F)F)c2)C[C@@H]1c1nc2ccccc2[nH]1 [Example 26, 1-[(2R,4R)-2-(1H-benzimidazol-2-yl)-1-methylpiperidin-4-yl]-3-[4-chloro-3-(trifluoromethyl)phenyl]urea hydrochloride]
108%		CN(C)c1ccc2[nH]c([C@H]3C[C@H](NC(=O)c4ccc5c(c4)OCCO5)CCN3C)nc2c1 [Example 27, N-{(2R,4R)-2-[5-(dimethylamino)-1H-benzimidazol-2-yl]-1-methylpiperidin-4-yl}-2,3-dihydro-1,4-benzodioxine-6-carboxamide hydrochloride]
108%		CN1CC[C@@H](NC(=O)Nc2cc(Cl)cc(Cl)c2)C[C@@H]1c1nc2ccccc2[nH]1 [Example 28, 1-[(2R,4R)-2-(1H-benzimidazol-2-yl)-1-methylpiperidin-4-yl]-3-(3,5-dichlorophenyl)urea hydrochloride]
108%		COc1ccc2[nH]c([C@H]3C[C@H](NC(=O)Nc4ccc(C#N)cc4)CCN3C)nc2c1 [Example 29, 1-(4-cyanophenyl)-3-[(2R,4R)-2-(5-methoxy-1H-benzimidazol-2-yl)-1-methylpiperidin-4-yl]urea hydrochloride]
